Source: PubChem BioAssay (NCI)
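Assay format: 96-well plates, 48-hour exposure. At the TGI there is no net growth.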

Legend:
Assay in all cases: inhibition of tumour cell growth, NCI panel, 48 h
[1] = test system: 786-0 renal
[2] = test system: A498 renal
[3] = test system: A549 NSCLC
[4] = test system: ACHN renal
[5] = test system: BT-549 breast
[6] = test system: CAKI-1 renal
[7] = test system: CCRF-CEM leukemia
[8] = test system: COLO 205 colon
[9] = test system: DU-145 prostate
[10] = test system: EKVX NSCLC
[11] = test system: HCC-2998 colon
[12] = test system: HCT-116 colon
[13] = test system: HCT-15 colon
[14] = test system: HL-60(TB) leukemia
[15] = test system: HOP-62 NSCLC
[16] = test system: HOP-92 NSCLC
[17] = test system: HS 578T breast
[18] = test system: HT29 colon
[19] = test system: IGROV1 ovarian
[20] = test system: K-562 leukemia
[21] = test system: KM12 colon
[22] = test system: LOX IMVI melanoma
[23] = test system: MALME-3M melanoma
[24] = test system: MCF7 breast
[25] = test system: MDA-MB-231 breast
[26] = test system: MDA-MB-435
[27] = test system: MDA-N
[28] = test system: MOLT-4 leukemia
[29] = test system: NCI-H226 lung
[30] = test system: NCI-H23 lung
[31] = test system: NCI-H460 lung
[32] = test system: NCI-H522 lung
[33] = test system: NCI/ADR-RES ovarian
[34] = test system: OVCAR-3 ovarian
[35] = test system: OVCAR-4 ovarian
[36] = test system: OVCAR-8 ovarian
[37] = test system: PC-3 prostate
[38] = test system: RPMI-8226 leukemia
[39] = test system: RXF 393 renal
[40] = test system: SF-268 CNS
[41] = test system: SF-295 CNS
[42] = test system: SF-539 CNS
[43] = test system: SK-MEL-2 melanoma
[44] = test system: SK-MEL-28 melanoma
[45] = test system: SK-MEL-5 melanoma
[46] = test system: SN12C renal
[47] = test system: SNB-75 CNS
[48] = test system: SR leukemia
[49] = test system: TK-10 renal
[50] = test system: U251 CNS
[51] = test system: UO-31 renal
[52] = test system: M14 melanoma
[53] = test system: OVCAR-5 ovarian
[54] = test system: SK-OV-3 ovarian
[55] = test system: SNB-19 CNS
[56] = test system: SW-620 colon
[57] = test system: UACC-257 melanoma
[58] = test system: UACC-62 melanoma

Question: How did the TGI [1] turn out when `CS(=O)(=O)N1CC(CI)c2ccc(O)cc21` (stereo unspecified) was run?
Answer: The TGI was 12.7 µM.

Question: And the TGI [2]?
Answer: Its TGI is 7.46 µM.

Question: What about the TGI [3] of the same compound?
Answer: Its TGI is 17 µM.

Question: What about the TGI [4] of the same compound?
Answer: The TGI was 12.9 µM.

Question: And the TGI [5]?
Answer: The TGI was 15.6 µM.

Question: And the TGI [6]?
Answer: Its TGI is 12.9 µM.

Question: What about the TGI [7] of the same compound?
Answer: Its TGI is 17.4 µM.

Question: What about the TGI [8] of the same compound?
Answer: Its TGI is 12.3 µM.

Question: And the TGI [9]?
Answer: The TGI was 9.36 µM.

Question: And the TGI [10]?
Answer: The TGI was 14.4 µM.

Question: What about the TGI [11] of the same compound?
Answer: The TGI was 4.69 µM.

Question: And the TGI [12]?
Answer: The TGI was 12.6 µM.

Question: What about the TGI [13] of the same compound?
Answer: Its TGI is 12.3 µM.

Question: And the TGI [14]?
Answer: The TGI was 6.09 µM.

Question: And the TGI [15]?
Answer: Its TGI is 7.62 µM.

Question: And the TGI [16]?
Answer: Its TGI is 6.31 µM.

Question: And the TGI [17]?
Answer: The TGI was > 100 µM.

Question: And the TGI [18]?
Answer: The TGI was 15.9 µM.

Question: What about the TGI [19] of the same compound?
Answer: Its TGI is 29.3 µM.

Question: What about the TGI [20] of the same compound?
Answer: The TGI was 24.2 µM.

Question: And the TGI [21]?
Answer: Its TGI is 15 µM.

Question: What about the TGI [22] of the same compound?
Answer: Its TGI is 17.2 µM.

Question: What about the TGI [23] of the same compound?
Answer: The TGI was 4.43 µM.

Question: And the TGI [24]?
Answer: Its TGI is 15.1 µM.

Question: And the TGI [25]?
Answer: Its TGI is 8.53 µM.

Question: What about the TGI [26] of the same compound?
Answer: The TGI was 4.2 µM.

Question: What about the TGI [27] of the same compound?
Answer: Its TGI is 6.4 µM.

Question: And the TGI [28]?
Answer: Its TGI is 9.65 µM.

Question: And the TGI [29]?
Answer: The TGI was 10.7 µM.

Question: What about the TGI [30] of the same compound?
Answer: The TGI was 5.32 µM.

Question: What about the TGI [31] of the same compound?
Answer: Its TGI is 10.9 µM.

Question: And the TGI [32]?
Answer: The TGI was 2.99 µM.

Question: And the TGI [33]?
Answer: Its TGI is 18 µM.

Question: What about the TGI [34] of the same compound?
Answer: Its TGI is 7.71 µM.

Question: And the TGI [35]?
Answer: Its TGI is 5.95 µM.

Question: What about the TGI [36] of the same compound?
Answer: Its TGI is 11.7 µM.

Question: What about the TGI [37] of the same compound?
Answer: The TGI was 6.51 µM.

Question: What about the TGI [38] of the same compound?
Answer: The TGI was 19.1 µM.

Question: And the TGI [39]?
Answer: The TGI was 3.44 µM.

Question: What about the TGI [40] of the same compound?
Answer: Its TGI is 16.1 µM.

Question: And the TGI [41]?
Answer: The TGI was 13.4 µM.

Question: What about the TGI [42] of the same compound?
Answer: The TGI was 8.66 µM.

Question: What about the TGI [43] of the same compound?
Answer: Its TGI is 5.49 µM.

Question: What about the TGI [44] of the same compound?
Answer: The TGI was 14.3 µM.

Question: What about the TGI [45] of the same compound?
Answer: Its TGI is 3.26 µM.

Question: And the TGI [46]?
Answer: The TGI was 15.8 µM.

Question: What about the TGI [47] of the same compound?
Answer: Its TGI is 6.02 µM.

Question: And the TGI [48]?
Answer: Its TGI is 7.33 µM.

Question: And the TGI [49]?
Answer: Its TGI is 7.3 µM.

Question: And the TGI [50]?
Answer: Its TGI is 10 µM.

Question: And the TGI [51]?
Answer: The TGI was 11.6 µM.

Question: Which results are given for `O=P(O)(O)C(NCC(O)CN1CCOCC1)P(=O)(O)O` (stereo unspecified)?
Answer: TGI [1]: > 100 µM; TGI [2]: > 100 µM; TGI [3]: > 100 µM; TGI [4]: > 100 µM; TGI [5]: > 100 µM; TGI [6]: > 100 µM; TGI [7]: > 100 µM; TGI [8]: > 100 µM; TGI [9]: > 100 µM; TGI [10]: > 100 µM; TGI [11]: > 100 µM; TGI [12]: > 100 µM; TGI [13]: > 100 µM; TGI [14]: > 100 µM; TGI [15]: > 100 µM; TGI [16]: > 100 µM; TGI [17]: > 100 µM; TGI [18]: > 100 µM; TGI [19]: > 100 µM; TGI [20]: > 100 µM; TGI [21]: > 100 µM; TGI [22]: > 100 µM; TGI [52]: > 100 µM; TGI [23]: > 100 µM; TGI [24]: > 100 µM; TGI [25]: > 100 µM; TGI [26]: > 100 µM; TGI [27]: > 100 µM; TGI [28]: > 100 µM; TGI [29]: > 100 µM; TGI [30]: > 100 µM; TGI [31]: > 100 µM; TGI [32]: > 100 µM; TGI [33]: > 100 µM; TGI [34]: > 100 µM; TGI [53]: > 100 µM; TGI [36]: > 100 µM; TGI [37]: > 100 µM; TGI [38]: > 100 µM; TGI [39]: > 100 µM; TGI [40]: > 100 µM; TGI [41]: > 100 µM; TGI [42]: > 100 µM; TGI [44]: > 100 µM; TGI [45]: > 100 µM; TGI [54]: > 100 µM; TGI [55]: > 100 µM; TGI [47]: > 100 µM; TGI [48]: > 100 µM; TGI [56]: > 100 µM; TGI [49]: > 100 µM; TGI [50]: > 100 µM; TGI [57]: > 100 µM; TGI [58]: > 100 µM; TGI [51]: > 100 µM
